From US20260315604A1, “OTUB1 Small-Molecule Binders and OTUB1-recruiting Deubiquitinase-targeting Chimeras (DUBTACs)” (ICAHN SCHOOL OF MEDICINE AT MOUNT SINAI, priority 2023, published 2026)

Target: T1, Human OTUB1 wild-type (Homo sapiens, UniProt Q96FW1)
T1 construct: His tag (N); made in house; host or cells: E. coli BL21-CodonPlus (DE3)-RIPIL
Test: Covalent modification of OTUB1 (adduct formation), mass spectrometry-based assay (OTUB1 covalent binders; selected CFTR or cGAS based bivalent compounds)
Type: binding
Conditions: covalent adduct formation with OTUB1 protein
Description: OTUB1 covalent binders were tested for their ability to form the covalent adduct with OTUB1 protein using a mass-spectrometry based assay.
Example 389. Assessment of the Covalent Modification of OTUB1 Protein by Selected OTUB1 Covalent Binders Using a Mass Spectrometry-Based Assay (FIG. 1)
OTUB1 protein (10 μM) was incubated with selecting compounds (2500 μM) at RT for 1 h. The adduct was qualified by mass spectrometry-based assays.
Example 398. Assessment of the Covalent Modification of OTUB1 Protein by Selected CFTR Based Bivalent Compounds Using Mass Spectrometry-Based Assay (FIG. 10)
OTUB1 protein (10 μM) was incubated with selecting bivalent compounds (2500 μM) at RT for 1 h. The adduct was qualified by mass spectrometry-based assays.
Human OTUB1 wild-type (NM_017670.3) and C23S mutation genes were optimized based on the codon preference of E. coli, synthesized and cloned into pET15b vector with a N-terminal His tag by Genscript, respectively. The plasmid was transferred to BL21-CodonPlus (DE3)-RIPIL Competent Cell (230280, Agilent Technologies) and the recombinant protein was induced expressed by 0.5 mM IPTG at 16° C. with shaking 200 rpm for 18 h. Induced cells were harvested by centrifugation and resuspended in cold lysis buffer (50 mM Tris-H—Cl pH 7.5, 150 mM NaCl, 25 mM imidazole pH 7.5, 0.01% IGEPAL, 5% Glycerol) in the presence of Pierce Protease Inhibitor tablets (PIA32963, Fisher Scientific) and 2 mM TCEP pH 7.5.
The cells were lysed by sonication, clarified by centrifugation, and the filtered supernatant loaded onto a 5 ml HisTrap HP affinity column (17524802, Cytiva) in AKTA system. The His-recombinant protein bound to column was washed using buffer A (50 mM Tris-HCl pH 7.5, 150 mM NaCl, 25 mM imidazole pH 7.5, 0.01% IGEPAL, 5% Glycerol) and eluted with buffer B (50 mM Tris-HCl pH 7.5, 150 mM NaCl, 250 mM imidazole pH 7.5, 0.01% IGEPAL, 5% Glycerol). The eluted fractions containing OTUB1 protein were concentrated and subjected to size exclusion chromatography using a 320 mL HiLoad 26/600 Superdex 200 pg column (28989336, Cytiva) under the buffer condition ([…] Tris-HCl pH 7.5, 150 mM NaCl, and 2 mM TCEP pH 7.5). The eluted fractions containing OTUB1 protein were concentrated, divided into aliquots and stored at −80° C. freezer for further usage.
Quality control of the OTUB1 proteins was performed by SDS-PAGE, Nanodrop and mass spectrometry.
Mass Spectrometry-Based Analysis of OTUB1-Covalent Ligand Adducts
To screen the covalent ligands, recombinant OTUB1 protein (10 μM) was respectively incubated with DMSO, EN523 or seven novel ligands (2500 μM) in reaction buffer (50 mM Tris-HCl pH 7.5, 150 mM NaCl, and 0.5 mM TCEP pH 7.5) for 1 h at room temperature.
Then, the total 500 μL reaction solution was exchanged and concentrated to 50 μL 50 mM ammonium bicarbonate with a 10 kDa MWCO centrifugal filter unit (UFC901024, Millipore) and diluted in MS buffer (30% ACN, 0.2% FA) to a final concentration of […]. Mass spectrometry detection was performed by an Agilent LC/MSD Time-Of-Flight (TOF) mass spectrometer (Agilent Technologies) equipped with an electrospray ion source. The data was analyzed by TOF Protein Confirmation Software. All experiments were performed in duplicate.

T1 sequence (Q96FW1 whole entry): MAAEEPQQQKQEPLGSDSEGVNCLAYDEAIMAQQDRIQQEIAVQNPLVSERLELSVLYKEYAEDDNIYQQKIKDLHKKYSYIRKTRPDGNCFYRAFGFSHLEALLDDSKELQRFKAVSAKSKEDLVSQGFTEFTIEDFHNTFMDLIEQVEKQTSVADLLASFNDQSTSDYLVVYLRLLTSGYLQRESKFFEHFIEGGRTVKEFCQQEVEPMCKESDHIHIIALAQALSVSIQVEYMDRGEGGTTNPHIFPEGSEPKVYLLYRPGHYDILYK

| % of OTUB1 modified [%] | SMILES |
| --- | --- |
| 60 | Cc1ccc(C(=O)N2CC(NC(=O)C#CC(C)(C)N(C)C)C2)s1 [XS224-145, 4-(dimethylamino)-4-methyl-N-(1-(5-methylthiophene-2-carbonyl)azetidin-3-yl)pent-2-ynamide] |
| <1 | Cc1ccc(N(C)C(=O)CCN(C)C(=O)/C=C/CN(C)C)s1 [XS175-160, (E)-4-(dimethylamino)-N-methyl-N-(3-(methyl(5-methylthiophen-2-yl)amino)-3-oxopropyl)but-2-enamide] |
| 80 | Cc1cc(N2CCN(C(=O)/C=C/CN(C)C)CC2=O)cs1 [XS175-59, (E)-4-(4-(dimethylamino)but-2-enoyl)-1-(5-methylthiophen-3-yl)piperazin-2-one] |
| <5 | Cc1ccc(N2CCN(C(=O)/C=C/CN3CCOCC3)CC2=O)s1 [XS165-155, (E)-1-(5-methylthiophen-2-yl)-4-(4-morpholinobut-2-enoyl)piperazin-2-one] |
| 10 | Cc1cccc(N2CCN(C(=O)/C=C/CN(C)C)CC2=O)n1 [XS165-109, (E)-4-(4-(dimethylamino)but-2-enoyl)-1-(6-methylpyridin-2-yl)piperazin-2-one] |
| 100 | Cc1cnc(N2CCN(C(=O)CCl)CC2=O)s1 [XS165-123, 4-(2-chloroacetyl)-1-(5-methylthiazol-2-yl)piperazin-2-one] |
| 7 | Cc1ccc(C(=O)N2CC3CCC2CN3C(=O)/C=C/CN(C)C)s1 (stereo not shown) [XS190-77, (E)-4-(dimethylamino)-1-(5-(5-methylthiophene-2-carbonyl)-2,5-diazabicyclo[2.2.2]octan-2-yl)but-2-en-1-one] |
| 70 | CN(C)C/C=C/C(=O)N1C2CC1CN(C(=O)c1csc3ccccc13)C2 [XS190-47, (E)-1-(3-(benzo[b]thiophene-3-carbonyl)-3,6-diazabicyclo[3.1.1]heptan-6-yl)-4-(dimethylamino)but-2-en-1-one] |
| 10 | Cc1cnc(NC(=O)C2(C)CN(C(=O)/C=C/CN(C)C)C2)o1 [XS209-23, (E)-1-(4-(dimethylamino)but-2-enoyl)-3-methyl-N-(5-methyloxazol-2-yl)azetidine-3-carboxamide] |
| 20 | Cc1ccc(C(=O)Nc2ccc(NC(=O)/C=C/CN(C)C)cc2)s1 [XS209-165, (E)-N-(4-(4-(dimethylamino)but-2-enamido)phenyl)-5-methylthiophene-2-carboxamide] |
| 60 | CN(C)C(C)(C)C#CC(=O)N1CC(C(=O)Nc2cc3ccccc3s2)C1 [XS224-107, N-(benzo[b]thiophen-2-yl)-1-(4-(dimethylamino)-4-methylpent-2-ynoyl)azetidine-3-carboxamide] |
| 60 | CCCC(=O)N1CC2CC(C1)N2C(=O)/C=C/CN(C)C [XS209-40, (E)-1-(3-butyryl-3,6-diazabicyclo[3.1.1]heptan-6-yl)-4-(dimethylamino)but-2-en-1-one] |
| 10 | Cc1ccc(C(=O)N2C[C@H]3C[C@@H]2CN3C(=O)/C=C/CN(C)C)s1 [XS190-81, (E)-4-(dimethylamino)-1-((1R,4R)-5-(5-methylthiophene-2-carbonyl)-2,5-diazabicyclo[2.2.1]heptan-2-yl)but-2-en-1-one] |
| <5 | C=CC(=O)N1CCN(c2cccc(C)n2)C(=O)C1 [XS159-90, 4-acryloyl-1-(6-methylpyridin-2-yl)piperazin-2-one] |
| 49 | CN(C)C/C=C/C(=O)N1C2CC1CN(C(=O)c1ccccc1)C2 [XS190-126, (E)-1-(3-benzoyl-3,6-diazabicyclo[3.1.1]heptan-6-yl)-4-(dimethylamino)but-2-en-1-one] |
| 70 | Cc1ccc(N2CCN(C(=O)/C=C/CN(C)C)CC2=O)s1 [XS165-105, (E)-4-(4-(dimethylamino)but-2-enoyl)-1-(5-methylthiophen-2-yl)piperazin-2-one] |
